# System: Helicoverpa armigera
# Experiment: gossypol tolerance test, larvae on artificial diet supplemented with gossypol
# Type: in vivo
# Conditions: third-instar larvae
# Experimental: Cotton bollworm (Helicoverpa armigera) eggs were purchased from Benzon research laboratory. See the world wide web at benzonresearch.com/insectlist.htm. They were hatched at 25° C. and all the larvae were fed with the artificial diet (Southland Products Incorporated on the world wide web at tecinfo.com/˜southland/. All dishes were kept at 25° C. on a 14-h-day/10-h-night cycle. For the gossypol tolerance experiments, third instars larvae were transferred to the artificial diet supplemented with gossypol (0-4 mg) for 4 d and the increase in weight was recorded.
# Gossypol and related sesquiterpene biosynthesized in cotton are toxic to many organisms. However, most Helicoverpa insects resist gossypol because the P450 monooxygenases in the midgut of these insects permit them to tolerate the gossypol. Therefore, in order to suppress P450 gene, two step insect bioassay was conducted. In the first step, third-instar larvae of Helicoverpa armigera were fed on P450: RNAi expressed leaves for four days. Then, all these larvae were transferred to the following diet or leaves: artificial diet with 3 mg/g gossypol or without gossypol; cotton leaves with glands/glandless and wild-type tobacco leaves. Addition of gossypol in the artificial diet or in leaves affects the growth and development of the larvae (FIG. 3). […]
smiles,measurement,setting,value
Cc1cc2c(C(C)C)c(O)c(O)c(C=O)c2c(O)c1-c1c(C)cc2c(C(C)C)c(O)c(O)c(C=O)c2c1O [gossypol],net weight increase of larvae,higher concentrations (3-4 mg/g) of gossypol diet,15.1 to 55.4 mg
same,weight increases of larvae,low concentration gossypol diet (1-2 mg/g),163 to 190 mg

# Reference: US10889825B2, “Compositions and methods thereof for down-regulation of genes following oral delivery of an RNAi molecule bioencapsulated within plant cells” (THE TRUSTEES OF THE UNIVERSITY OF PENNSYLVANIA, priority 2015, dated 2021)
